Assay results: article PMC12459314, “Subcutaneous administration of a novel TRPM8 antagonist reverses cold hypersensitivity while attenuating the drop in core body temperature” (British journal of pharmacology, 2024)

Experiments:
oxaliplatin-treated mice = test: Oxaliplatin-induced cold hyperalgesia, cold-plantar test; type: in vivo, mouse
Experimental: Male and female C57 BL/6J mice from Taconic Labs were randomized by sex and cage to oxaliplatin or vehicle groups. Mice were weighed and injected intraperitoneally (i.p.) with either oxaliplatin (3 mg·kg^−1), or vehicle (5% dextrose) once per day every day for five consecutive days, followed by five days off, and then by a second round of once per day for five more days. Therefore, mice received a total of 10 injections for a total of 30 mg·kg^−1. The average weight of the females was 18 g while of the males was 20 g. Consequently, the females received an average of 540 and the males 600 μg in total. Behavioural testing was started after the second round of oxaliplatin/vehicle administration. The cold-plantar test was used to assess changes in cold sensitivity. A 3 ml syringe barrel filled with powdered dry ice was used as the stimulus. The dry ice is placed on the glass (borosilicate glass; thickness, 1/8 in. (3.17 mm); temperature, 75°F (24°C), measured with a calibrated IR temperature probe) beneath the hindpaw and the latency to withdraw was determined ([Yilmaz et al., 2017]). The baseline withdrawal latency was determined from the mean of three stimulus applications (at an inter-stimulus interval of ~5 min), while that at each time interval after the administration of a test agent was again the mean of three stimulus applications bracketing the time point in question (i.e., 5 min before, at the time point, and 5 min after). Mice in the two groups defined by oxaliplatin treatment were subsequently randomized to the order of treatment (with the TRPM8 antagonist VBJ103, or vehicle control). VBJ103 and vehicle solutions were administered subcutaneously (s.c.) at doses of 3, 10 and 30 mg·kg^−1. Mice were tested every other day over 7 days so that each mouse received all four injections (vehicle and three doses of VBJ103). In a second cohort of male (n = 8) and female (n = 8) mice, all mice were treated with oxaliplatin as described above, and then randomized to the order of treatment with vehicle, VBJ103 (30 mg·kg^−1) alone, the TRPA1 antagonist, HC-030031 (200 mg·kg^−1) alone, or the combination of VBJ103 (30 mg·kg^−1) and HC-030031 (200 mg·kg^−1). A third cohort of male (n = 7) and female (n = 8) mice was also treated with oxaliplatin as described above. […] All test agents in both follow-up cohorts were again administered in a volume of 5 ml·kg^−1. Mice in both follow-up cohorts were again tested every other day over a period of 6 days. Finally, a fourth cohort of male (n = 4) and female (n = 4) mice was used to confirm that 200 mg·kg^−1 HC-030031 was sufficient to block TRPA1. For this experiment, mice were randomized to the order of treatment with vehicle or HC-030031 ([…]).

[1] = Core body temperature by radiotelemetry after i.c.v. administration; type: in vivo, mouse; conditions: 3 nmol in 1 μL i.c.v.; within 60 min; in five of eight mice
Experimental: A second set of male C57Bl6J mice (Jackson Laboratories, n = 8) was implanted with telemetry as described above and a 26-gauge brain cannula (Plastics One) targeted at the lateral ventricle using coordinates relative to Bregma: 0.3 mm caudal, 1.0 mm lateral, 3.0 mm ventral. This second procedure was also performed under isoflurane anesthesia. The brain cannula was secured to the skull with two screws and dental cement. Animals were treated with buprenex (0.05 mg·kg^−1, s.c. every 8 h for 48 h) and enrofloxacin (2 mg·kg^−1, s.c.), singly housed and handled daily as described above. A single i.c.v. injection was performed every other day in a randomized order and included: (1) Galanin-like peptide (3 nmol/1 μL), (2) VBJ103 (306 nmol/1 μL) and (3) VBJ103 vehicle (1 μL). Galanin-like peptide produced a decrease in body temperature in five of eight mice. Therefore, body temperature data in response to VBJ103 and vehicle are presented in these five mice. These studies were carried out with a single dose of VBJ103 (306 nmol/1 μL or ~4 mg·kg^−1), which was the highest dose achievable due to constraints of the injection volume and the solubility of VBJ103.

[2] = ref Journigan et al, 2020; cited from earlier work
[3] = Partition coefficient (logD), shake flask method; type: physicochemical; conditions: n-octanol / pH 7.4 phosphate buffer
Experimental: The partition coefficient (logD) at pH 7.4 of VBJ103 was determined using the shake flask method by Absorption Systems (Exton, PA, USA). The buffer was prepared by combining 50 ml of 0.2-M solution of KH2PO4 with 150 ml of dH2O and then adjusting to pH 7.4 with 10-N NaOH. In a single incubation, 15 μl of a 10-mM DMSO solution of each test article was added to test tubes which contained 0.75 ml of n-octanol and 0.75 ml of pH 7.4 phosphate buffer. Testosterone was also introduced to each tube as an internal control, also at a dosing concentration of 100 μM. These samples were gently mixed on a benchtop rotator for 1 h at room temperature. The tubes were then removed from the rotator, and the aqueous and organic phases were allowed to separate for 1 h. An aliquot of the organic layer was taken and diluted 200-fold into a mixture of 1:1 buffer: acetonitrile (ACN). An aliquot of the aqueous layer was taken and diluted 2-fold, 10-fold and 200-fold into a mixture of 1:1 buffer: ACN. All samples were assayed by LC–MS/MS on a Thermo BDS Hypersil C18 column (30 × 2.1 mm, 3 μm) using electrospray ionization, as previously reported ([Journigan et al., 2020]).

[4] = Core body temperature and home cage activity by radiotelemetry (s.c., i.p.); type: in vivo, mouse; conditions: capsaicin 1 mg·kg−1 s.c.
Experimental: Male and female C57Bl6J (Jackson Laboratories, Bar Harbor, USA, 8–12 weeks of age, 4 M:3F) were anaesthetised with isoflurane (2%–3% in 100% oxygen), and an HDX11 telemetry unit (Data Sciences) was inserted into the peritoneal cavity through a ventral midline incision. Animals were treated with buprenex (0.05 mg·kg^−1, s.c.every 8 h for 72 h) and enrofloxacin (2 mg·kg^−1, s.c.) and single-housed in a reverse light–dark cycle room (lights off 10 AM–10 PM). Mice were handled every day to acclimatise to injections, and experiments began 1 week later. All injections were performed between 1 and 2 PM. […] Body temperature was averaged into 5-min bins, whereas activity data were summed for the 5-min bin.

human TRPV1 = molecular target: T1, human TRPV1 (Homo sapiens, UniProt Q8NER1); test: FlexStation Ca2+ flux assay in HEK293T cells transfected with human TRPV1; type: cell-based
T1 construct: expressed in transfected cells; host or cells: HEK293T
Experimental: The human embryonic kidney cell line (HEK293T, CRL-1573, RRID: CVCL_0045) was purchased from the American Type Culture Collection (Manassas, USA) and was maintained in Dulbecco’s Minimal Essential Medium (DMEM, Cellgro10013CV, Corning, Tewksbury, USA) that was supplemented with 10% fetal bovine serum (Gemini Bio-products), 2-mM L-glutamine (Invitrogen) and 100 U/mL penicillin and streptomycin (Invitrogen) and cultured in an incubator at 37°C, 5% CO2 and 95% humidity. Human TRPV1 and TRPA1 plasmid DNA (gift from D. Julius) were transiently bulk transfected individually into HEK293T cells using the FuGene HD transfection reagent (TFR, Promega, Madison, WI, USA) at a 3:1 ratio (TFR:DNA). […] The plate was transferred to a FlexStation 3 microplate reader. Relative fluorescence units (RFUs) (Ex. 485 nm, Em 525 nm) were then acquired at 37°C in the kinetic mode. The run time for the agonist (1st) and antagonist (2nd) reads were 60 s each, for a total run time of 120 s, with an interval of 3.1 s between reads in the same well to allow all 16 wells in a column to be read sequentially, and the photomultiplier tube (PMT) level was set at medium, with 6 flashes per read. Baseline Fluo-6 RFUs were acquired for 18 s prior to the addition of compound in both the agonist and antagonist reads. For the first addition agonist read, the volume in the well was 50 μl, the pipette height was set at 40 μl, and 12.5 μl of the test compound was delivered at a speed of 2 μl·s^−1 after the baseline RFU’s acquisition period at 19 s, and the RFUs were acquired for an additional 41 s. For the second addition antagonist read, the volume in the well was 62.5 μl, the pipette height was set at 40 μl, and 12.5 μl of an EC80 agonist concentration was delivered at a speed of 2 μl/s after the baseline RFU’s acquisition period at 19 s, and the RFUs were acquired for an additional 41 s. […]

AITC-treated mice = test: AITC-induced nociceptive behaviours; type: in vivo, mouse; conditions: HC-030031 200 mg·kg−1, 30 min before AITC 3 mg·kg−1 i.p.; quantified over 20 min
Experimental: Male and female C57 BL/6J mice from Taconic Labs were randomized by sex and cage to oxaliplatin or vehicle groups. Mice were weighed and injected intraperitoneally (i.p.) with either oxaliplatin (3 mg·kg^−1), or vehicle (5% dextrose) once per day every day for five consecutive days, followed by five days off, and then by a second round of once per day for five more days. Therefore, mice received a total of 10 injections for a total of 30 mg·kg^−1. The average weight of the females was 18 g while of the males was 20 g. Consequently, the females received an average of 540 and the males 600 μg in total. Behavioural testing was started after the second round of oxaliplatin/vehicle administration. The cold-plantar test was used to assess changes in cold sensitivity. […] The dry ice is placed on the glass (borosilicate glass; thickness, 1/8 in. (3.17 mm); temperature, 75°F (24°C), measured with a calibrated IR temperature probe) beneath the hindpaw and the latency to withdraw was determined ([Yilmaz et al., 2017]). The baseline withdrawal latency was determined from the mean of three stimulus applications (at an inter-stimulus interval of ~5 min), while that at each time interval after the administration of a test agent was again the mean of three stimulus applications bracketing the time point in question (i.e., 5 min before, at the time point, and 5 min after). […]

human TRPA1 = molecular target: T2, human TRPA1 (Homo sapiens, UniProt O75762); test: FlexStation Ca2+ flux assay in HEK293T cells transfected with human TRPA1; type: cell-based; conditions: against an EC80 concentration (10 μM) of AITC
T2 construct: expressed in transfected cells; host or cells: HEK293T
Experimental: The human embryonic kidney cell line (HEK293T, CRL-1573, RRID: CVCL_0045) was purchased from the American Type Culture Collection (Manassas, USA) and was maintained in Dulbecco’s Minimal Essential Medium (DMEM, Cellgro10013CV, Corning, Tewksbury, USA) that was supplemented with 10% fetal bovine serum (Gemini Bio-products), 2-mM L-glutamine (Invitrogen) and 100 U/mL penicillin and streptomycin (Invitrogen) and cultured in an incubator at 37°C, 5% CO2 and 95% humidity. Human TRPV1 and TRPA1 plasmid DNA (gift from D. Julius) were transiently bulk transfected individually into HEK293T cells using the FuGene HD transfection reagent (TFR, Promega, Madison, WI, USA) at a 3:1 ratio (TFR:DNA). Transfected cells were seeded at 10,000 cells per well in a volume of 25 μl into black walled collagen coated 384-well microtiter plates and cultured in an incubator at 37°C, 5% CO2 and 95% humidity for 48 h prior to the initiation of calcium mobilization experiments performed on a FlexStation 3 (Molecular Devices, Sunnyvale, CA, USA) platform equipped with a 16-channel robotic pipettor head and FLIPR tetra pipette tips. At 46 h post transfection, cell monolayers were preloaded with 25 μl of the FLIPR Calcium 6 dye (Molecular Devices) for 2 h in an incubator at 37°C, 5% CO2 and 95% humidity according to the manufacturer’s instructions. The plate was transferred to a FlexStation 3 microplate reader. Relative fluorescence units (RFUs) (Ex. 485 nm, Em 525 nm) were then acquired at 37°C in the kinetic mode. The run time for the agonist (1st) and antagonist (2nd) reads were 60 s each, for a total run time of 120 s, with an interval of 3.1 s between reads in the same well to allow all 16 wells in a column to be read sequentially, and the photomultiplier tube (PMT) level was set at medium, with 6 flashes per read. Baseline Fluo-6 RFUs were acquired for 18 s prior to the addition of compound in both the agonist and antagonist reads. For the first addition agonist read, the volume in the well was 50 μl, the pipette height was set at 40 μl, and 12.5 μl of the test compound was delivered at a speed of 2 μl·s^−1 after the baseline RFU’s acquisition period at 19 s, and the RFUs were acquired for an additional 41 s. For the second addition antagonist read, the volume in the well was 62.5 μl, the pipette height was set at 40 μl, and 12.5 μl of an EC80 agonist concentration was delivered at a speed of 2 μl/s after the baseline RFU’s acquisition period at 19 s, and the RFUs were acquired for an additional 41 s. The FlexStation 3 instrument settings, automated pipetting and data collection were all controlled by the SoftMax Pro software, version 7.1.2.
To analyse the agonist and antagonist Ca^2+ mobilization Fluo-6 RFU’s kinetic data, the RFU’s readings acquired throughout the 60-s acquisition period for each individual well were divided by the average RFU values acquired during the first 18-s baseline acquisition period from the same well to calculate a fold over baseline (FOB) ratio.

T2 sequence (O75762 whole entry): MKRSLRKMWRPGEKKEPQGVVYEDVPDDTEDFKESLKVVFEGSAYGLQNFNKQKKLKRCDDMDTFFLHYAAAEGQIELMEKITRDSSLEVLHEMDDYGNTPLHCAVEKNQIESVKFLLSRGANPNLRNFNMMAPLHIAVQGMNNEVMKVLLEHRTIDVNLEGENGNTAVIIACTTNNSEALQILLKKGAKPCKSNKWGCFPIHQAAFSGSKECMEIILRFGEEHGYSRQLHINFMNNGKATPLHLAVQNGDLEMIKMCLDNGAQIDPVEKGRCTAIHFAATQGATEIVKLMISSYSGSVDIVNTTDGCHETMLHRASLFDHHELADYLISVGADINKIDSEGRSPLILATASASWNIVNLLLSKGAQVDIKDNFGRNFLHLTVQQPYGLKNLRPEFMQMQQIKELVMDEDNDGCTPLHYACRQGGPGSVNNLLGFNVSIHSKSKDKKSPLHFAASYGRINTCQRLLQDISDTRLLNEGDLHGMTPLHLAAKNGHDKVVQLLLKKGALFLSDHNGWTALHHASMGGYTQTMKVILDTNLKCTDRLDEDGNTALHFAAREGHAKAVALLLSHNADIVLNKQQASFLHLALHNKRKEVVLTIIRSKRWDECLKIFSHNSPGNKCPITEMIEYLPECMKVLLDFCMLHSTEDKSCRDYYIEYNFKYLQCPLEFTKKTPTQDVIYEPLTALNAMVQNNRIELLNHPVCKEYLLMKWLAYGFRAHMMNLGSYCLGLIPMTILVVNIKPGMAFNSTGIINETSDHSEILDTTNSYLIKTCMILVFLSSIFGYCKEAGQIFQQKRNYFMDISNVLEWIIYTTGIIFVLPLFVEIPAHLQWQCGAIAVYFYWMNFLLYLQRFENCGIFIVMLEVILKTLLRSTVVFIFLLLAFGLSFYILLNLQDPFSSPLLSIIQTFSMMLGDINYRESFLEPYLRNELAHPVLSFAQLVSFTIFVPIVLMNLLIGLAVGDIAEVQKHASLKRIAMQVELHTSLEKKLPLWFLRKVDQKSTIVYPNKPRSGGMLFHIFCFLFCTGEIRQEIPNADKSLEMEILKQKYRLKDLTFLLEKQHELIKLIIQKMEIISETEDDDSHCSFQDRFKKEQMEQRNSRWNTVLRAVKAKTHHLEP
T1 sequence (Q8NER1 whole entry): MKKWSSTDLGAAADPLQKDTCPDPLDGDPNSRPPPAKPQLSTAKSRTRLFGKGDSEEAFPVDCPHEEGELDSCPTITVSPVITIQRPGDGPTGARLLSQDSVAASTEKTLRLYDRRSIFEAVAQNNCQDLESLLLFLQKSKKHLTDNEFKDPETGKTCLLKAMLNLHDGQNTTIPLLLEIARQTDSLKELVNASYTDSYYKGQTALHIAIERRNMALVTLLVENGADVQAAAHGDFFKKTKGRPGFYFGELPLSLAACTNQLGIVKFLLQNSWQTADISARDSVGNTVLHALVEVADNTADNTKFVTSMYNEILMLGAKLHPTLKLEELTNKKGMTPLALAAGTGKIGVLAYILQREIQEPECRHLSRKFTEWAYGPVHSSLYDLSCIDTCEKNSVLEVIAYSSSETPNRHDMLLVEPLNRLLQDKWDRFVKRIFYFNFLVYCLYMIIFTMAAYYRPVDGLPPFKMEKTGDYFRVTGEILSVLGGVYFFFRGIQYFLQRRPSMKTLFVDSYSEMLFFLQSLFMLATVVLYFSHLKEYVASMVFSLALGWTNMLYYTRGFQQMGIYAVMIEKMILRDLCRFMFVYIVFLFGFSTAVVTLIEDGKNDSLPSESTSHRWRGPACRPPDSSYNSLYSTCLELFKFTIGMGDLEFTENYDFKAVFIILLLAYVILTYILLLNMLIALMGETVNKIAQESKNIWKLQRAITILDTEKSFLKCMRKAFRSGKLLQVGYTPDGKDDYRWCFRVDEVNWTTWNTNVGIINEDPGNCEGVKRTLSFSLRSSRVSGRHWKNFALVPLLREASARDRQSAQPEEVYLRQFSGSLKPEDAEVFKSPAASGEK

Molecule: Fc1ccc(C(OCCN2CCN(CCCc3ccccc3)CC2)c2ccc(F)cc2)cc1 [GBR12909, reference compound]
- influence on withdrawal latency to noxious cold stimuli (oxaliplatin-treated mice; 20 mg·kg−1 alone, third cohort, vehicle 1:1 DMSO:water): no detectable influence

Molecule: galanin-like peptide: peptide given i.c.v. as positive control for a decrease in body temperature (APAHRGRGGWTLNSAGYLLGPVLHLPQMGDQDGKRETALEILDLWKAIDGLPYSHPPQPS; Galanin-like peptide; UniProt Q9UBC7 25-84, looked up) [reference compound]
- decrease in CBT [1]: > 3 °C

Molecule: C[C@]12CC[C@H]3[C@@H](CCC4=CC(=O)CC[C@@]43C)[C@@H]1CC[C@@H]2O [testosterone, reference compound]
- Mouse Liver microsomes, T1/2 [2]: 3.7 min
- logD at 1 h [3]: 3.09

Molecule: COc1cc(CNC(=O)CCCC/C=C/C(C)C)ccc1O [capsaicin, reference compound]
- time of peak drop in CBT [4]: ≤ 60 min
- drop in CBT versus s.c. VBJ103 or PBMC ([4]; positive control): significantly larger drop

Molecule: Oc1cc2c(cc1O)CN(C(=S)NCCc1ccc(Cl)cc1)CCC2 [capsazepine, reference compound]
- IC50 (human TRPV1): 566 ± 86 nM

Molecule: CC(C)c1ccc(NC(=O)Cn2cnc3c2c(=O)n(C)c(=O)n3C)cc1 [HC-030031, reference compound]
- influence on oxaliplatin-induced cold hypersensitivity (oxaliplatin-treated mice; 200 mg·kg−1 alone, second cohort, vehicle 0.5% Methocel): failed to detect an influence
- AITC-induced nociceptive behaviours (AITC-treated mice): significantly attenuated
- IC50 (human TRPA1): 2000 ± 830 nM
- maximum inhibition at TRPA1 (human TRPA1): 54%

Molecule: Cl.Cl.Cl.Cl.Cl.Cl.N.N.N.N.N.N.N.N.N.N.N.N.N.N.[O-2].[O-2].[Ru+3].[Ru+3].[Ru+4] [ruthenium red, reference compound]
- IC50 (human TRPA1): 53 ± 7 nM
